Patent publication US10233191B2, “Fused piperidine amides as modulators of ion channels” (Vertex Pharmaceuticals Incorporated, priority 2013, dated 2019)

biological target: T1, NaV 1.7 (Homo sapiens, UniProt Q15858); assay: E-VIPR optical membrane potential assay with electrical stimulation; type: cell-based; details: active against one or more sodium channels; assay/subtype not specified in Table 4; read-out: IC50 Binned Activity Data
T1 construct: expressed in transfected cells; host or cells: HEK cells
T1 sequence (Q15858 whole entry): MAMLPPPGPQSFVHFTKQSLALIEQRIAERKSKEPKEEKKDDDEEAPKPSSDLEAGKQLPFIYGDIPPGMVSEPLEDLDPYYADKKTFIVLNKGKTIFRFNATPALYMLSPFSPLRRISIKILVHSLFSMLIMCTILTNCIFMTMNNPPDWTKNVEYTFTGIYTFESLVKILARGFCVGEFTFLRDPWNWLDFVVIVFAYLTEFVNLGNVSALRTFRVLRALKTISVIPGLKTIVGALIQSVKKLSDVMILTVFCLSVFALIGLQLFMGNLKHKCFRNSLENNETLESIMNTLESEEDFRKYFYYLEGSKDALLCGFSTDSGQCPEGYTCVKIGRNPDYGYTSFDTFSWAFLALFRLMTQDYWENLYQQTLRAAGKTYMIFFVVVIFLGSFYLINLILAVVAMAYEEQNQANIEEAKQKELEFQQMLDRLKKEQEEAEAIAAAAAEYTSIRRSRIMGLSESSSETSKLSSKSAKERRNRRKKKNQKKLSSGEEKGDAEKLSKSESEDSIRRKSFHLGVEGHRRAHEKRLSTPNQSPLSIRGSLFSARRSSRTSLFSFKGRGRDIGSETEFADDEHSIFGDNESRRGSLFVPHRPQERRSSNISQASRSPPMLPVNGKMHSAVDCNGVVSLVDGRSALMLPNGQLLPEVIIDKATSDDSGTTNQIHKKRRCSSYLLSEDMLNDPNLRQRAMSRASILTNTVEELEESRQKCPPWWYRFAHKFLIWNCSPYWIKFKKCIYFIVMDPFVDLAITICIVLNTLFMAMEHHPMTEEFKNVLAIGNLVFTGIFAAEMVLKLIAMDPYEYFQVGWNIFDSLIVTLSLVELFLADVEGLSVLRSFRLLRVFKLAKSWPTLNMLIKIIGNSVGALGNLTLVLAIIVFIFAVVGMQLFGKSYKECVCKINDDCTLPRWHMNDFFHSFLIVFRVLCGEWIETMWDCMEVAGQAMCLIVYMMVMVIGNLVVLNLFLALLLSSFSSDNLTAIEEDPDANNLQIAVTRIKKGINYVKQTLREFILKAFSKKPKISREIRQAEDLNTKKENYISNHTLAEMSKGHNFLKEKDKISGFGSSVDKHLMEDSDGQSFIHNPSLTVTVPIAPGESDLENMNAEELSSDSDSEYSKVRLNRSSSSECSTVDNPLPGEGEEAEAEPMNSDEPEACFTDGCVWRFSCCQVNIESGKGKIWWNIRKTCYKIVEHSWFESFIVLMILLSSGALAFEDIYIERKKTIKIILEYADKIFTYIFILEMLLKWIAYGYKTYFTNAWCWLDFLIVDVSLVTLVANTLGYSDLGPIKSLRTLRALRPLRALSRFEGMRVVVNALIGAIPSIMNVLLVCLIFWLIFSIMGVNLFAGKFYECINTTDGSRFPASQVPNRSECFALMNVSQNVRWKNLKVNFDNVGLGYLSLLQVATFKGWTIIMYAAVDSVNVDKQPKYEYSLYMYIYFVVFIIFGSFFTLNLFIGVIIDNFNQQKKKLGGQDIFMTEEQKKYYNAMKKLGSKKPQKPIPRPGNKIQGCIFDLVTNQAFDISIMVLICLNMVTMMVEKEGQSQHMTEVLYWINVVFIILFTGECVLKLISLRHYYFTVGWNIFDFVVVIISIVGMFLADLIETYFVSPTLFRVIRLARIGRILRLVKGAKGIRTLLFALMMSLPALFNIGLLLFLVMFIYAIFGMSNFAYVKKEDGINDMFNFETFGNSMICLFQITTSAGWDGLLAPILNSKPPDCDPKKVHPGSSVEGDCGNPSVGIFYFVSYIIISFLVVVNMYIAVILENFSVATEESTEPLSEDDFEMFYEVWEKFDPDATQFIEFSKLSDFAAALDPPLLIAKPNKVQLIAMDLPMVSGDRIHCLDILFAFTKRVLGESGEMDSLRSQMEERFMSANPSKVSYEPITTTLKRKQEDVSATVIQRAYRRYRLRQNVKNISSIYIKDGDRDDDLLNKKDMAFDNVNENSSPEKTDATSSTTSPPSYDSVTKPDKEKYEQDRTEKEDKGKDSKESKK
Outline: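 HEK cells expressing human NaV1.7, loaded with CC2-DMPE/DiSBAC6(3) FRET dyes, then exposed to compounds for 20-35 min at room temperature (0.625% DMSO). Electrical stimulation applied for 9 s with 400 Hz scanning. Read-out is the background-subtracted 460/580 nm emission ratio, normalized.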

SMILES	IC50
COc1cc(C(=O)N2CC[C@]3(c4ccccn4)C(=O)OCC3C2)ccc1OCCOC(F)(F)F (some centres unmarked) [Compound 277]	≤ 2000 nM
COc1cc(C(=O)N2CC[C@@]3(c4ccccn4)COCC3C2)ccc1OCCOC(F)(F)F (some centres unmarked) [Compound 278]	≤ 2000 nM
[2H]C1([2H])OC2CN(C(=O)c3ccc(OCC4CC(F)(F)C4)c(OC)n3)CC[C@]2(c2cccc(F)c2)O1 (some centres unmarked) [Compound 279]	≤ 2000 nM
[2H]C1([2H])OC2CN(C(=O)c3ccc(OCC4CC(F)(F)C4)c(OC)n3)CC[C@]2(c2cc(F)cc(F)c2)O1 (some centres unmarked) [Compound 280]	≤ 2000 nM
COc1nc(C(=O)N2CC[C@]3(c4cccc(F)c4F)OCOC3C2)ccc1OCC1CC(F)(F)C1 (some centres unmarked) [Compound 281]	≤ 2000 nM
COc1cc(C(=O)N2CC[C@]3(c4cccc(F)c4F)OCOC3C2)ccc1OCCC(F)(F)F (some centres unmarked) [Compound 282]	≤ 2000 nM
COc1cc(C(=O)N2CC[C@]3(c4cccc(Cl)c4)OCOC3C2)ccc1OCCOC(F)(F)F (some centres unmarked) [Compound 283]	≤ 2000 nM
[2H]C1([2H])OC2CN(C(=O)c3ccc(OCC4CCC4)c(OC)n3)CC[C@]2(c2cccc(F)c2)O1 (some centres unmarked) [Compound 284]	≤ 2000 nM
COc1cc(C(=O)N2CCC3(c4ccccn4)CC3C2)ccc1OCCOC(F)(F)F (centres unmarked) [Compound 285]	≤ 2000 nM
COc1cc(C(=O)N2CC[C@]3(c4cc(F)ccc4F)OCOC3C2)ccc1OC(C)C(F)(F)F (some centres unmarked) [Compound 286]	≤ 2000 nM
COc1cc(C(=O)N2CC[C@]3(c4cc(F)ccc4F)OCOC3C2)ccc1OCCC(F)(F)F (some centres unmarked) [Compound 287]	≤ 2000 nM
COc1cc(C(=O)N2CC[C@]3(c4cc(F)ccc4F)OCOC3C2)ccc1OCC1CC(F)(F)C1 (some centres unmarked) [Compound 288]	≤ 2000 nM
COc1nc(C(=O)N2CC[C@]3(c4cc(F)ccc4F)OCOC3C2)ccc1OCCOC(F)(F)F (some centres unmarked) [Compound 289]	≤ 2000 nM
COc1cc(C(=O)N2CC[C@]3(c4cccc(C#N)c4)OCOC3C2)ccc1OC(C)C(F)(F)F (some centres unmarked) [Compound 290]	> 5000 nM
COc1cc(C(=O)N2CC[C@]3(c4cccc(C#N)c4)OCOC3C2)ccc1OCC1CC(F)(F)C1 (some centres unmarked) [Compound 291]	≤ 2000 nM
COc1nc(C(=O)N2CC[C@]3(c4cccc(C#N)c4)OCOC3C2)ccc1OCCOC(F)(F)F (some centres unmarked) [Compound 292]	≤ 2000 nM
COc1cc(C(=O)N2CC[C@]3(c4cccc(C#N)c4)OCOC3C2)ccc1OCCOC(F)(F)F (some centres unmarked) [Compound 293]	≤ 2000 nM
O=C(c1cnc(OCCOC(F)(F)F)c(Cl)c1)N1CC[C@]2(c3ccccn3)OCOC2C1 (some centres unmarked) [Compound 294]	≤ 2000 nM
O=C(c1cnc(OCCOC(F)(F)F)c(Cl)c1)N1CC[C@]2(c3ccccc3)OCOC2C1 (some centres unmarked) [Compound 295]	≤ 2000 nM

SMILES	IC50
O=C(c1cnc(OCCOC(F)(F)F)c(Cl)c1)N1CCC2(c3ccc(F)cc3)CC2C1 (centres unmarked) [Compound 296]	2000 to 5000 nM
COc1cc(C(=O)N2CCC3(c4ccc(F)cc4)CC3C2)ccc1OC(C)C(F)(F)F (centres unmarked) [Compound 297]	> 5000 nM
COc1cc(C(=O)N2CCC3(c4ccc(F)cc4)CC3C2)ccc1OCC1CC(F)(F)C1 (centres unmarked) [Compound 298]	≤ 2000 nM
COc1nc(C(=O)N2CCC3(c4ccc(F)cc4)CC3C2)ccc1OCCOC(F)(F)F (centres unmarked) [Compound 299]	≤ 2000 nM
COc1cc(C(=O)N2CCC3(c4ccc(F)cc4)CC3C2)ccc1OCCOC(F)(F)F (centres unmarked) [Compound 300]	≤ 2000 nM
O=C(c1ccc(OCCOC(F)(F)F)c(Cl)c1)N1CCC2(c3ccc(F)cc3)CC2C1 (centres unmarked) [Compound 301]	≤ 2000 nM
[2H]C1([2H])OC2CN(C(=O)c3ccc(OCCOC(F)(F)F)c(OC)c3)CC[C@]2(c2ccccc2)O1 (some centres unmarked) [Compound 302]	≤ 2000 nM
[2H]C1([2H])OC2CN(C(=O)c3ccc(OCCOC(F)(F)F)c(C)n3)CC[C@]2(c2ccccn2)O1 (some centres unmarked) [Compound 303]	≤ 2000 nM
[2H]C1([2H])OC2CN(C(=O)c3ccc(OCCOC(F)(F)F)c(Cl)c3)CC[C@]2(c2ccccn2)O1 (some centres unmarked) [Compound 304]	≤ 2000 nM
[2H]C1([2H])OC2CN(C(=O)c3ccc(OCCOC(F)(F)F)c(OC)c3)CC[C@]2(c2ccccn2)O1 (some centres unmarked) [Compound 305]	≤ 2000 nM
[2H]C1([2H])OC2CN(C(=O)c3ccc(OCCOC(F)(F)F)c(C)n3)CC[C@]2(c2cccc(F)c2)O1 (some centres unmarked) [Compound 306]	≤ 2000 nM
[2H]C1([2H])O[C@@H]2CN(C(=O)c3ccc(OC(C)C(F)(F)F)c(OC)c3)CC[C@]2(c2cccc(F)c2)O1 (some centres unmarked) [Compound 307]	≤ 2000 nM
[2H]C1([2H])OC2CN(C(=O)c3ccc(OCCOC(F)(F)F)c(C)n3)CC[C@]2(c2cc(F)cc(F)c2)O1 (some centres unmarked) [Compound 308]	≤ 2000 nM
[2H]C1([2H])OC2CN(C(=O)c3ccc(OCCOC(F)(F)F)c(OC)n3)CC[C@]2(c2cc(F)cc(F)c2)O1 (some centres unmarked) [Compound 309]	≤ 2000 nM
COc1cc(C(=O)N2CC[C@]3(c4ccccn4)OC(C)(C)OC3C2)ccc1OCCOC(F)(F)F (some centres unmarked) [Compound 310]	≤ 2000 nM
CC(Oc1ccc(C(=O)N2CC[C@]3(c4ccccn4)OCOC3C2)cc1C(F)(F)F)C(F)(F)F (some centres unmarked) [Compound 311]	≤ 2000 nM
O=C(c1ccc(OCC2CC(F)(F)C2)c(C(F)(F)F)c1)N1CC[C@]2(c3ccccn3)OCOC2C1 (some centres unmarked) [Compound 312]	≤ 2000 nM
CC(F)(F)COc1ccc(C(=O)N2CC[C@]3(c4ccccn4)OCOC3C2)cc1C(F)(F)F (some centres unmarked) [Compound 313]	2000 to 5000 nM
COc1cc(C(=O)N2CC[C@]3(c4cccc(OCC(C)C)n4)OCOC3C2)ccc1OCCOC(F)(F)F (some centres unmarked) [Compound 314]	≤ 2000 nM
